{"source": "patent US20250249110A1", "about": "“ANTIMICROBIAL PEPTIDE DERIVATIVE AND USE THEREOF” (SICHUAN UNIVERSITY, priority 2016, published 2025)", "key": {"[1]": {"test_system": "Staphylococcus aureus 33591", "test": "Intra-abdominally infected mouse model", "assay_type": "in vivo", "details": "intravenous administration; DP7-C 1 mg/kg, VAN 20 mg/kg; vs NS group, p<0.01", "method": "The anti-infection activity of DP7-C is determined by the intra-abdominally infected models. […]\nThe experimental steps are as follows: • (1) Activate Staphylococcus aureus 33591 with MHB the day before the experiment, wash the activated strains twice with normal saline on the day of the experiment, and determine the concentration of bacterial liquid for later use. • (2) To establish an abdominally infected mouse model, intraperitoneally inject the bacterial solution of 1.5×10^8 cfu/0.5 mL into each mouse. • (3) Intravenously inject the drug by group after one hour of infection, 0.1 mL/mouse. • (4) 24 h later, intraperitoneally inject 5 mL of normal saline into the mouse, gently massage the abdomen, kill the mouse and disinfect with 75% alcohol. After 5 min, scissor the abdominal cavity epithelium, make a small opening in the abdominal cavity, draw ascites as much as possible from the opening with a 1 ml syringe, and then transfer to a sterile EP tube for mixing. • (5) Dilute with normal saline at a dilution of, for example, 10×, 100×, 1000× and 10000×; take three bacterial solutions with suitable concentrations, 20 μL each, coat the MHA plate and incubate in a bacteria incubator overnight. • (6) Select a plate with 20-200 colonies and convert and calculate the amount of bacteria per milliliter in 5 milliliters of ascites."}, "red blood cells [2]": {"test_system": "red blood cells", "test": "Hemolysis test in vitro", "assay_type": "cell-based, human (healthy volunteers)", "details": "FIG. 5B", "method": "In the hemolysis test, DP7 and DP7-C at the same concentration were detected for the hemolysis of red blood cells. • 1. Take the blood of healthy volunteers and put into an anticoagulant tube and gently mix. • 2. Take out the anticoagulant, add isometric physiological saline, mix slowly and evenly, centrifuge at 400×g for 10 min, and discard the supernatant. • 3. Slowly mix the red blood cells and wash with PBS, centrifuge at 400×g for 10 min, discard the supernatant, and wash the cell precipitate with PBS for three times. • 4. Dilute with PBS to obtain 20% (v/v) red blood cell solution, which can be used immediately or stored at 4° C. for about 2 weeks (without hemolysis). • 5. Dilute the drug into a series of concentration gradients with PBS, add 100 μL of drug into a 96-well plate, take 100 μL of 2% Twain 20 as the positive control, add 100 μL of PBS to the negative control. Repeat the process 3 times for each concentration of drug. • 6. Dilute 20% (v/v) of red blood cell solution with PBS according to the volume ratio of 1:20, mix evenly and add to a 96-well plate, with the drug concentration of 100, 200, 400, 600, 800, 1000, 1200, 1600 μg/mL respectively, and incubate at 37° C. for 1 h. • 7. Incubate the mixture of drugs and red blood cells, centrifuge at 900×g for 10 min, add 160 μL of the supernatant to a new 96-well plate, and read the absorbance value at OD 450 nm. • 8. According to the absorbance value of A450, calculate the percentage of hemolysis corresponding to each concentration of drugs.\nThe calculation formula of the percentage of hemolysis is: […]"}, "staphylococcus aureus": {"test_system": "staphylococcus aureus", "details": "background statement; cited from earlier work"}, "red blood cells [3]": {"test_system": "red blood cells", "details": "cited from earlier work"}}, "note": "Where no end group is shown, it is not given here."}
{"molecule": "CN[C@H](CC(C)C)C(=O)N[C@H]1C(=O)N[C@@H](CC(N)=O)C(=O)N[C@H]2C(=O)N[C@H]3C(=O)N[C@H](C(=O)N[C@H](C(=O)O)c4cc(O)cc(O)c4-c4cc3ccc4O)[C@H](O)c3ccc(c(Cl)c3)Oc3cc2cc(c3O[C@@H]2O[C@H](CO)[C@@H](O)[C@H](O)[C@H]2O[C@H]2C[C@](C)(N)[C@H](O)[C@H](C)O2)Oc2ccc(cc2Cl)[C@H]1O", "note": "[VAN, Vancomycin, reference compound]", "values": [{"measurement": "average colony forming unit (CFU) of Staphylococcus aureus", "setting": "[1]", "result": "significantly lower than those in NS group"}]}
{"molecule": "VQWRIRVAVIRK-NH2 [DP7, VQWRIRVAVIRK-NH2]", "values": [{"measurement": "appearance of hemolysis test", "setting": "red blood cells [2]", "result": "red blood cells are lysed"}, {"measurement": "therapeutic effect in vivo", "setting": "staphylococcus aureus", "result": "very good therapeutic effect"}, {"measurement": "lethality", "setting": "red blood cells [3]; high concentration, intravenous injection", "result": "kill mice"}, {"measurement": "hemolysis of red blood cells", "setting": "red blood cells [3]; mouse, in vivo, iv", "result": "cause hemolysis of red blood cells"}]}
